From PubChem BioAssay (NCI)
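Step 1: Grow cells in 96-well plates. Step 2: Expose to compound for 48 hours at 5 concentrations. Step 3: Interpolate endpoints linearly; if unreached, use highest concentration. TGI marks complete inhibition of growth.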

Tests used:
Experiment in all cases: inhibition of tumour cell growth, NCI panel, 48 h
786-0 renal = system: 786-0 renal
A498 renal = system: A498 renal
A549 NSCLC = system: A549 NSCLC
ACHN renal = system: ACHN renal
BT-549 breast = system: BT-549 breast
CAKI-1 renal = system: CAKI-1 renal
CCRF-CEM leukemia = system: CCRF-CEM leukemia
COLO 205 colon = system: COLO 205 colon
DU-145 prostate = system: DU-145 prostate
EKVX NSCLC = system: EKVX NSCLC
HCT-116 colon = system: HCT-116 colon
HCT-15 colon = system: HCT-15 colon
HL-60(TB) leukemia = system: HL-60(TB) leukemia
HOP-62 NSCLC = system: HOP-62 NSCLC
HOP-92 NSCLC = system: HOP-92 NSCLC
HS 578T breast = system: HS 578T breast
IGROV1 ovarian = system: IGROV1 ovarian
K-562 leukemia = system: K-562 leukemia
KM12 colon = system: KM12 colon
LOX IMVI melanoma = system: LOX IMVI melanoma
MCF7 breast = system: MCF7 breast
MDA-MB-231 breast = system: MDA-MB-231 breast
MDA-MB-435 = system: MDA-MB-435
MDA-N = system: MDA-N
MOLT-4 leukemia = system: MOLT-4 leukemia
NCI-H460 lung = system: NCI-H460 lung
NCI-H522 lung = system: NCI-H522 lung
OVCAR-3 ovarian = system: OVCAR-3 ovarian
OVCAR-4 ovarian = system: OVCAR-4 ovarian
OVCAR-5 ovarian = system: OVCAR-5 ovarian
PC-3 prostate = system: PC-3 prostate
RPMI-8226 leukemia = system: RPMI-8226 leukemia
RXF 393 renal = system: RXF 393 renal
SF-295 CNS = system: SF-295 CNS
SF-539 CNS = system: SF-539 CNS
SK-MEL-2 melanoma = system: SK-MEL-2 melanoma
SK-MEL-28 melanoma = system: SK-MEL-28 melanoma
SK-MEL-5 melanoma = system: SK-MEL-5 melanoma
SK-OV-3 ovarian = system: SK-OV-3 ovarian
SN12C renal = system: SN12C renal
SNB-19 CNS = system: SNB-19 CNS
SNB-75 CNS = system: SNB-75 CNS
SR leukemia = system: SR leukemia
SW-620 colon = system: SW-620 colon
T-47D breast = system: T-47D breast
TK-10 renal = system: TK-10 renal
U251 CNS = system: U251 CNS
UACC-257 melanoma = system: UACC-257 melanoma
UACC-62 melanoma = system: UACC-62 melanoma
UO-31 renal = system: UO-31 renal
HCC-2998 colon = system: HCC-2998 colon
HT29 colon = system: HT29 colon
M14 melanoma = system: M14 melanoma
MALME-3M melanoma = system: MALME-3M melanoma
NCI-H226 lung = system: NCI-H226 lung
NCI-H23 lung = system: NCI-H23 lung
NCI/ADR-RES ovarian = system: NCI/ADR-RES ovarian
OVCAR-8 ovarian = system: OVCAR-8 ovarian
SF-268 CNS = system: SF-268 CNS

Measured: TGI

CCOC(=O)Nc1nn(C)c(=NCc2ccccc2)s1
not listed: HCC-2998 colon | HT29 colon | M14 melanoma | MALME-3M melanoma | NCI-H226 lung | NCI-H23 lung | NCI/ADR-RES ovarian | OVCAR-8 ovarian | SF-268 CNS
> 100 µM: all other assays above

CCCCCC[C@H]1C(=O)O[C@H](C)[C@H](NC(=O)c2cccc(NC=O)c2OC)C(=O)O[C@@H](C)[C@@H]1OC(=O)CC(C)C (tested in a mixture with another compound)
57.3 µM: CAKI-1 renal
48.3 µM: NCI-H23 lung
38.7 µM: SK-MEL-5 melanoma
34.1 µM: U251 CNS
47.2 µM: A498 renal
36 µM: SR leukemia
49.2 µM: ACHN renal
22.5 µM: OVCAR-3 ovarian
50.3 µM: HCT-116 colon
50.8 µM: TK-10 renal
81.2 µM: HOP-92 NSCLC
30.4 µM: OVCAR-8 ovarian
34.7 µM: COLO 205 colon
39.2 µM: SK-OV-3 ovarian
55.7 µM: UACC-257 melanoma
24.9 µM: OVCAR-4 ovarian
78.3 µM: MCF7 breast | SF-539 CNS
91.7 µM: MDA-MB-231 breast
21.4 µM: A549 NSCLC
84.9 µM: NCI/ADR-RES ovarian
85.3 µM: CCRF-CEM leukemia
not listed: IGROV1 ovarian | SNB-19 CNS | SNB-75 CNS
> 100 µM: all other assays above
